Structures can show the parent of a compound that is named as a salt.
Key:
BIR2 domain of XIAP = BIR2 domain of XIAP (Homo sapiens (Human), UniProt P98170, C202A/C213G); assay: TR-FRET assay for BIR2 (inhibition of binding of XIAP BIR2 domain to SMAC-derived Peptide A); conditions: 6x His-tagged BIR2 domain (aa 124-240 of XIAP) 10 nM, Peptide A 20 nM, TR-FRET; read-out: IC50 BIR2
BIR3 domain of XIAP = BIR3 domain of XIAP (Homo sapiens (Human), UniProt P98170); assay: TR-FRET assay for BIR3 (inhibition of binding of XIAP BIR3 domain to SMAC-derived Peptide A); conditions: 6x His-tagged BIR3 domain (aa 241-356 of XIAP) 10 nM, Peptide A 20 nM, TR-FRET
Sequence of BIR3 domain of XIAP (P98170 241-356 with tags or gaps limits assumed): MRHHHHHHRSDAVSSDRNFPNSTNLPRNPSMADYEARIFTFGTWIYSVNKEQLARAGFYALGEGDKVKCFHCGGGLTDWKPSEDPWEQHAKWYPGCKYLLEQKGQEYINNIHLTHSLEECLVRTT

Sequence of BIR2 domain of XIAP (P98170 124-240 with tags or gaps C202A/C213G limits assumed): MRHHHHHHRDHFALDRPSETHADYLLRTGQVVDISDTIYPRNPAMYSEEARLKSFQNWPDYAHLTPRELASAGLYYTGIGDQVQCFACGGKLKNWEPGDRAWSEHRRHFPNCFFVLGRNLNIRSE

Structure (SMILES)	IC50 (BIR2 domain of XIAP) [nM]	IC50 (BIR3 domain of XIAP) [nM]
CN[C@@H](C)C(=O)N[C@H]1CN(C(=O)c2ccc(C(O)C(F)(F)F)cc2)c2ccccc2N(Cc2c(OC)ccc3cc(Br)ccc23)C1=O (mixture of isomers) [Example 32, (S)—N—{(S)-1-(6-Bromo-2-methoxy-naphthalen-1-ylmethyl)-2-oxo-5-[4-(2,2,2-trifluoro-1-hydroxy-ethyl)-benzoyl]-2,3,4,5-tetrahydro-1H-benzo[b][1,4]diazepin-3-yl}-2-methylamino-propionamide hydrochloride, mixture of diastereomers]	25	
CN[C@@H](C)C(=O)N[C@H]1CN(C(=O)c2ccccc2[C@H](C)O)c2ccccc2N(Cc2c(C)ccc3ccccc23)C1=O (stereo in doubt) [Example 148, (2S)-N-[(3S)-1-[2-[(1S)-1-hydroxyethyl]benzoyl]-5-[(2-methylnaphthalen-1-yl)methyl]-4-oxo-2,3-dihydro-1,5-benzodiazepin-3-yl]-2-(methylamino)propanamide;(2S)-N-[(3S)-1-[2-[(1R)-1-hydroxyethyl]benzoyl]-5-[(2-methylnaphthalen-1-yl)methyl]-4-oxo-2,3-dihydro-1,5-benzodiazepin-3-yl]-2-(methylamino)propanamide]	40.1	> 54800
CN[C@@H](C)C(=O)N[C@H]1CN(C(=O)c2ccccc2[C@H](C)O)c2ccccc2N(Cc2c(C)ccc3ccccc23)C1=O (stereo in doubt) [Example 153, (25)-N-[(3S)-1-[2-[(1S)-1-hydroxyethyl]benzoyl]-5-[(2-methylnaphthalen-l-yl)methyl]-4-oxo-2,3-dihydro-1,5-benzodiazepin-3-yl]-2-(methylamino)propanamide;(2S)-N-[(3S)-1-[2-[(1R)-1-hydroxyethyl]benzoyl]-5-[(2-methylnaphthalen-1-yl)methyl]-4-oxo-2,3-dihydro-1,5-benzodiazepin-3-yl]-2-(methylamino)propanamide]	52.4	
CN[C@@H](C)C(=O)N[C@H]1CN(C(=O)Cc2ccccc2)c2ccccc2N(Cc2cccc3ccccc23)C1=O [Example 4, (S)-2-Methylamino-N—((S)-1-naphthalen-1-ylmethyl-2-oxo-5-phenylacetyl-2,3,4,5-tetrahydro-1H-benzo[b][1,4]diazepin-3-yl)-propionamide hydrochloride]	409	> 54000
CN[C@@H](C)C(=O)N[C@H]1CN(CCc2ccccc2)c2ccccc2N(Cc2cccc3ccccc23)C1=O [Example 7, (S)-2-Methylamino-N—((S)-1-naphthalen-1-ylmethyl-2-oxo-5-phenethyl-2,3,4,5-tetrahydro-1H-benzo[b][1,4]diazepin-3-yl)-propionamide trifluoroacetate]	1550	
CN[C@@H](C)C(=O)N[C@H]1CN(C(=O)c2ccncc2)c2ccccc2N(Cc2c(C)ccc3ccccc23)C1=O [Example 9, (S)-2-Methylamino-N—[(S)-1-(2-methyl-naphthalen-1-naphthalen-1 ylmethyl)-2-oxo-5-(pyridine-4-carbonyl)-2,3,4,5-tetrahydro-1H-benzo[b][1,4]diazepin-3-yl]-propionamide hydrochloride]	520	> 54800
CN[C@@H](C)C(=O)N[C@H]1CN(C(=O)COCCOC)c2ccccc2N(Cc2c(C)ccc3ccccc23)C1=O [Example 10, (S)—N—[(S)-5-[2-(2-methoxy-ethoxy)-acetyl]-1-(2-methyl-naphthalen-1-ylmethyl)-2-oxo-2,3,4,5-tetrahydro-1H-benzo[b][1,4]diazepin-3-yl]-2-methylamino-propionamide hydrochloride]	364	> 54800
CN[C@@H](C)C(=O)N[C@H]1CN(C(=O)CC(N)=O)c2ccccc2N(Cc2c(C)ccc3ccccc23)C1=O [Example 11, (S)—N—[(S)-5-(2-Carbamoyl-acetyl)-1-(2-methyl-naphthalen-1-ylmethyl)-2-oxo-2,3,4,5-tetrahydro-1H-benzo[b][1,4]diazepin-3-yl]-2-methylamino-propionamide hydrochloride]	426	> 54800
CN[C@@H](C)C(=O)N[C@H]1CN(C(=O)COCCOCCOC)c2ccccc2N(Cc2c(C)ccc3ccccc23)C1=O [Example 13, (S)—N—[(S)-5-{2-[2-(2-Methoxy-ethoxy)-ethoxy]-acetyl}-1-(2-methyl-naphthalen-1-ylmethyl)-2-oxo-2,3,4,5-tetrahydro-1H-benzo[b][1,4]diazepin-3-yl]-2-methylamino-propionamide hydrochloride]	234	
CN[C@@H](C)C(=O)N[C@H]1CN(C(=O)CC2CCCCC2)c2ccccc2N(Cc2c(OC)ccc3cc(Br)ccc23)C1=O [Example 13i]	78	
CN[C@@H](C)C(=O)N[C@H]1CN(C(=O)c2ccc(C(=O)C(C)(C)C)cc2)c2ccccc2N(Cc2c(OC)ccc3cc(Br)ccc23)C1=O [Example 13j]	37	
CN[C@@H](C)C(=O)N[C@H]1CN(C(=O)c2cccc(C(C)=O)c2)c2ccccc2N(Cc2c(OC)ccc3cc(Br)ccc23)C1=O [Example 13l]	67	
CN[C@@H](C)C(=O)N[C@H]1CN(C(=O)Cc2ccc(C(C)=O)cc2)c2ccccc2N(Cc2c(OC)ccc3cc(Br)ccc23)C1=O [Example 13o]	28	
CN[C@@H](C)C(=O)N[C@H]1CN(C(=O)CC23CC4CC(CC(C4)C2)C3)c2ccccc2N(Cc2c(OC)ccc3cc(Br)ccc23)C1=O [Example 13q]	92	
CN[C@@H](C)C(=O)N[C@H]1CN(C(=O)CCCC(C)=O)c2ccccc2N(Cc2c(OC)ccc3cc(Br)ccc23)C1=O [Example 27, (S)—N—((S)-1-((6-bromo-2-methoxynaphthalen-1-yl)methyl)-2-oxo-5-(5-oxohexanoyl)-2,3,4,5-tetrahydro-1H-benzo[b][1,4]diazepin-3-yl)-2-(methylamino)propanamide hydrochloride]	33	
CN[C@@H](C)C(=O)N[C@H]1CN(C(=O)c2ccc(C(=O)OC)cc2)c2ccccc2N(Cc2c(OC)ccc3cc(Br)ccc23)C1=O [Example 28, 4-[(S)-5-(6-Bromo-2-methoxy-naphthalen-1-ylmethyl)-3-((S)-2-methylamino-propionylamino)-4-oxo-2,3,4,5-tetrahydro-benzo[b][1,4]diazepine-1-carbonyl]-benzoic acid methyl ester hydrochloride]	39	
CN[C@@H](C)C(=O)N[C@H]1CN(C(=O)c2ccc(C(=O)O)cc2)c2ccccc2N(Cc2c(OC)ccc3cc(Br)ccc23)C1=O [Example 29, 4-[(S)-5-(6-Bromo-2-methoxy-naphthalen-1-ylmethyl)-3-((S)-2-methylamino-propionylamino)-4-oxo-2,3,4,5-tetrahydro-benzo[b][1,4]diazepine-1-carbonyl]-benzoic acid hydrochloride]	28	
CN[C@@H](C)C(=O)N[C@H]1CN(C(=O)C23CC4CC(CC(C4)C2)C3)c2ccccc2N(Cc2c(OC)ccc3cc(Br)ccc23)C1=O [Example 34, (S)—N—[(S)-5-(Adamantane-1-carbonyl)-1-(6-bromo-2-methoxy-naphthalen-1-ylmethyl)-2-oxo-2,3,4,5-tetrahydro-1H-benzo[b][1,4]diazepin-3-yl]-2-methylamino-propionamide hydrochloride]	33	
COc1ccc2cc(Br)ccc2c1CN1C(=O)[C@@H](NC(=O)[C@@H]2CCN2)CN(C(=O)c2ccc(C(C)=O)cc2)c2ccccc21 [Example 36, (S)—N—((S)-5-(4-acetylbenzoyl)-1-((6-bromo-2-methoxynaphthalen-1-yl)methyl)-2-oxo-2,3,4,5-tetrahydro-1H-benzo[b][1,4]diazepin-3-yl)azetidine-2-carboxamide hydrochloride]	5000	
COc1ccc2cc(Br)ccc2c1CN1C(=O)[C@@H](NC(=O)[C@H](C)N)CN(C(=O)c2ccc(C(C)=O)cc2)c2ccccc21 [Example 39, (S)—N—((S)-5-(4-acetylbenzoyl)-1-((6-bromo-2-methoxynaphthalen-1-yl)methyl)-2-oxo-2,3,4,5-tetrahydro-1H-benzo[b][1,4]diazepin-3-yl)-2-aminopropanamide hydrochloride]	19	
CN[C@@H](C)C(=O)N[C@H]1CN(C(=O)CCCC(C)=O)c2ccccc2N(Cc2c(OC)ccc3cc(C(=O)OC)ccc23)C1=O [Example 46, 6-Methoxy-5-[(S)-3 ((S)-2-methylamino-propionylamino)-2-oxo-5-(5-oxo-hexanoyl)-2,3,4,5-tetrahydro-benzo[b][1,4]diazepin-1-ylmethyl]-naphthalene-2-carboxylic acid methyl ester hydrochloride]	62	
CN[C@@H](C)C(=O)N[C@H]1CN(C(=O)CCN)c2ccccc2N(Cc2c(OC)ccc3cc(C(=O)O)ccc23)C1=O [Example 62, 5-(((S)-5-(3-aminopropanoyl)-3-((S)-2-(methylamino)propanamido)-2-oxo-2,3,4,5-tetrahydro-1H-benzo[b][1,4]diazepin-1-yl)methyl)-6-methoxy-2-naphthoic acid hydrochloride]	17	
CN[C@H](C)C(=O)N[C@H]1CN(C(=O)c2ccc(C(C)=O)cc2)c2ccccc2N(Cc2c(C)ccc3ccccc23)C1=O [Example 68, (R)—N—((S)-5-(4-acetylbenzoyl)-1-((2-methylnaphthalen-1-yl)methyl)-2-oxo-2,3,4,5-tetrahydro-1H-benzo[b][1,4]diazepin-3-yl)-2-(methylamino)propanamide hydrochloride]		> 54800
CN[C@@H](C)C(=O)N[C@H]1CN(C(=O)CC2CCOCC2)c2ccccc2N(Cc2c(OC)ccc3c(Br)cccc23)C1=O [Example 87, (S)—N—((S)-1-((5-bromo-2-methoxynaphthalen-1-yl)methyl)-2-oxo-5-(2-(tetrahydro-2H-pyran-4-yl)acetyl)-2,3,4,5-tetrahydro-1H-benzo[b][1,4]diazepin-3-yl)-2-(methylamino)propanamide hydrochloride]		54400

From US10053431B2, “Tetrahydro-benzodiazepinones” (priority 2013, dated 2018)
